Measurements as given in ChEMBL document CHEMBL3286208, “Pyranocoumarins from Glehnia littoralis inhibit the LPS-induced NO production in macrophage RAW 264.7 cells” (Bioorg Med Chem Lett, 2014).

Tests used:
RAW264.7 = assay: Inhibition of LPS-induced NO production in mouse RAW264.7 cells after 24 hrs by Griess method; format: functional, cell-based; conditions: RAW264.7, 24 h
[1] = Cytotoxicity against mouse RAW264.7 cells assessed as cell viability at 0.5 to 50 uM; format: cell-based; conditions: read-out: Activity

| Compound | IC50 (RAW264.7) | viability at up to 50 µM [1] |
| --- | --- | --- |
| CC(C)C(=O)O[C@H]1c2c(ccc3ccc(=O)oc23)OC(C)(C)[C@H]1OC(=O)C(C)C | 28.2 µM | > 90% |
| CC(=O)O[C@H]1c2c(ccc3ccc(=O)oc23)OC(C)(C)[C@H]1OC(=O)C=C(C)C | 44.3 µM | > 90% |
| CC(=O)O[C@H]1c2c(ccc3ccc(=O)oc23)OC(C)(C)[C@H]1OC(=O)CC(C)C | 18.8 µM | > 90% |
| CC(C)CC(=O)O[C@H]1c2c(ccc3ccc(=O)oc23)OC(C)(C)[C@H]1OC(=O)CC(C)C | 7.4 µM | > 90% |
| CC(C)=CC(=O)O[C@H]1c2c(ccc3ccc(=O)oc23)OC(C)(C)[C@H]1OC(=O)CC(C)C | 9.9 µM | > 90% |
| CC(C)=CC(=O)O[C@H]1c2c(ccc3ccc(=O)oc23)OC(C)(C)[C@H]1OC(=O)C=C(C)C | 9.8 µM | > 90% |
| N=C(N)NN [PIMAGEDINE] | 16.9 µM | – |
